Assay [1] deals with T1, DDX20 Probable ATP-dependent RNA helicase DDX20 (Homo sapiens, UniProt Q9UHI6).
T1 construct: 200 μL of lysate containing 5 mg/ml proteome was treated with 2 μL of 100× compound stock; endogenous in cells
T1 sequence (Q9UHI6 1-824): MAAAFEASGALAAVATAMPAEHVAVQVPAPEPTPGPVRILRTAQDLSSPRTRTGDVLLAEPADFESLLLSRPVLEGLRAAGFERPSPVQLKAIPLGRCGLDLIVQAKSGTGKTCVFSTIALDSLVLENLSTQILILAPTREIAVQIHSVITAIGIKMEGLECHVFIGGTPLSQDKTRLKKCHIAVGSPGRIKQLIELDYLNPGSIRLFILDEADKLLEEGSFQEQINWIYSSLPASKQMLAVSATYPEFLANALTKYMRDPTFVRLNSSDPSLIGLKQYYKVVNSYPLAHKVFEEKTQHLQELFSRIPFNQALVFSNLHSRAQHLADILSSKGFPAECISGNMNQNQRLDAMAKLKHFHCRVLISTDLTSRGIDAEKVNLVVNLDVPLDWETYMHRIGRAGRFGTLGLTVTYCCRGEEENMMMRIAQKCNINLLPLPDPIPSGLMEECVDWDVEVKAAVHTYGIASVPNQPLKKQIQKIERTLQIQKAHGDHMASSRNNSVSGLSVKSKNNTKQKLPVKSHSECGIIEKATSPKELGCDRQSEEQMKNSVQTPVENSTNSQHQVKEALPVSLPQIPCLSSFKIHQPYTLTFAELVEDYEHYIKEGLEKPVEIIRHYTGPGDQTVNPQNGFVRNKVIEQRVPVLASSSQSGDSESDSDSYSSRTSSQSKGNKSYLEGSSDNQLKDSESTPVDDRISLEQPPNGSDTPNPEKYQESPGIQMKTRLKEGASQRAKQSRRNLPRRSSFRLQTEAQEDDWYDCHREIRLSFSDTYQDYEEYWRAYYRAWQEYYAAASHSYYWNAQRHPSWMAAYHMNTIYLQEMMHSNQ
Put plainly: Cysteine liganding, probe competition. The class given is binding. The procedure, abridged: (§1)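 Lysates from probe-sonicated cells in PBS (5 mg/ml proteome) were exposed to compound for 1 hr at 25° C, then labelled with desthiobiotin iodoacetamide probe (10 mM stock) for 1 hr at 25° C. Probe-tagged peptides were streptavidin-enriched after trypsin digestion.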

Assay [2] deals with T2, HADHB Trifunctional enzyme subunit beta, mitochondrial (Homo sapiens, UniProt P55084).
T2 construct: Cells were resuspended in cold PBS on ice and sonicated with a probe sonicator to achieve lysis; endogenous in cells
T2 sequence (P55084 34-474): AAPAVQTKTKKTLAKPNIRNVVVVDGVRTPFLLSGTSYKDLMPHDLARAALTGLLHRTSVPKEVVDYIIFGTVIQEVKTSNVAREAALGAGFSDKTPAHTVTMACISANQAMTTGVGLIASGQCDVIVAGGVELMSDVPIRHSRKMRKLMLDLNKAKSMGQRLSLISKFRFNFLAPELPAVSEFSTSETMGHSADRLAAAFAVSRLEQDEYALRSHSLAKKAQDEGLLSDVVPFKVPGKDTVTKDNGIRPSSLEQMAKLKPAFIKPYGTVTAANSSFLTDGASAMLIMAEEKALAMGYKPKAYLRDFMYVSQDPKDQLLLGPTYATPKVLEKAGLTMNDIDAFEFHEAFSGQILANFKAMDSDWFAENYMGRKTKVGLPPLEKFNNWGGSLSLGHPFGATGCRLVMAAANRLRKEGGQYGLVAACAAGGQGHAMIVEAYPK
T2 sequence (P40939 37-763 partner): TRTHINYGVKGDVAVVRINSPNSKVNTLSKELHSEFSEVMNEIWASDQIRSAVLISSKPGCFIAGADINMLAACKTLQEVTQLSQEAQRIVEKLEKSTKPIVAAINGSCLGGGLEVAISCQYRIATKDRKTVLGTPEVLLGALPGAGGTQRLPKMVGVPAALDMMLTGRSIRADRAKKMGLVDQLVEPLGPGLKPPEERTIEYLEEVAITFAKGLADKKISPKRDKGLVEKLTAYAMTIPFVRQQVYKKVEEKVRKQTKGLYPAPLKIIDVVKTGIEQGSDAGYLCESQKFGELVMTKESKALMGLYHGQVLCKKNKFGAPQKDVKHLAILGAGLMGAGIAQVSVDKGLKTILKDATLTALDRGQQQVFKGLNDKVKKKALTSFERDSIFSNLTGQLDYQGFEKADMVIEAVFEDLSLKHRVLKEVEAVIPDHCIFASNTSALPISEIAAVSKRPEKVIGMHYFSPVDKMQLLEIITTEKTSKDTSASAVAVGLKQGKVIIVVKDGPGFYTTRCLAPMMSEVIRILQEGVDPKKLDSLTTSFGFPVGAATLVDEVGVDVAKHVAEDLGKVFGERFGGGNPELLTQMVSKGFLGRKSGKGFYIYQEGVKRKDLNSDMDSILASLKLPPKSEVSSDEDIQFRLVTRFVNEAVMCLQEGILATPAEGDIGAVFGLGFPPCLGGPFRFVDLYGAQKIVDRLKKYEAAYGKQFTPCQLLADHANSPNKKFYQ
Nature of the assay: Cysteine liganding, probe competition. The class given is binding. In short, it runs like this: as §1

For the molecule `O=C(CCl)Nc1cc(C(F)(F)F)cc(C(F)(F)F)c1` [KBO3], in assay [1] (uniprot Q9UHI6), the “100 Max” value was 0.85, the 100 ave is −6.7225, the “500 Max” value is recorded as 37.31 and the 500 ave came out at 31.49. Also, in assay [2] (uniprot P55084), the “100 Max” value was found to be 26.24, the 100 ave worked out at 15.245, the “500 Max” value is listed as 64.33 and the 500 ave came to 60.9.
As for `COc1ccc2c(c1)CCCN2C(=O)CCl` [KB02], the Liganded result in assay [1] (DDX20 Res# 577, uniprot Q9UHI6) is listed as “YES”; in assay [2] (HADHB Res# 458, uniprot P55084) it was “YES”.

Source of the values: patent publication US20200239530A1, “COMPOUNDS AND METHODS OF MODULATING PROTEIN DEGRADATION” (Vividion Therapeutics, Inc., priority 2017, published 2020).
